# Measured values reported in US20200297684A1, “TOPICAL COMPOSITIONS AND METHODS FOR TREATING ACNE VULGARIS” (Bausch Health Ireland Limited, priority 2019, published 2020).
# Several values for one entry are separate records, joined by “and”; a condition that tells them apart may be missing. Identical values can stand only once.
# Columns and labels:
# [1] = Chemical stability of tretinoin in an admixture with benzoyl peroxide at room condition and 32° C., under room light; assay type: physicochemical; details: for Assay (% label claim), 32° C., Room Light / Assay (% label claim), Room Condition: tretinoin in admixture with benzoyl peroxide
# Method: The chemical stability of tretinoin in an admixture with benzoyl peroxide of the present invention at room temperature and 32 degrees C., under room light condition is shown in Table 1.
# More than 97 and 96 percent of treinoin in the original admixture of the present invention remains after 24 hours at room condition and 32° C., under room light, respectively. Such stability ensures that the therapeutic efficacy of tretinoin is not diminished between once-a-day applications.
# [2] = equal parts of 0.05% tretinoin gel and gel containing 5% BPO and clindamycin phosphate; 32° C. for 7 hours; cited from earlier work
# [3] = time 0 hr, replicates top/middle/bottom
smiles,measurement,setting,value
"CC1=C(/C=C/C(C)=C/C=C/C(C)=C/C(=O)O)C(C)(C)CCC1 [Tretinoin, tretinoin]",time for which tretinoin in the admixture is chemically stable,"[1]; admixture of tretinoin and benzoyl peroxide compositions, even at 32° C. under room light condition",at least 24 hours
same,percent of tretinoin in the original admixture remaining,"[1]; after 24 hours at 32° C., under room light",> 96%
same,percent of tretinoin in the original admixture remaining,[1]; after 24 hours at room condition,More than 97%
same,"Assay (% label claim), 32° C., Room Light",[1]; [3],98.8 % label claim and 97.1 % label claim and 98.3 % label claim
same,"Assay (% label claim), Room Condition",[1]; [3],98.8 % label claim and 97.1 % label claim and 98.3 % label claim
same,"Assay (% label claim), 32° C., Room Light",[1]; time 1 hr,98.5 % label claim and 97.1 % label claim
same,"Assay (% label claim), Room Condition",[1]; time 1 hr,96.8 % label claim and 97.2 % label claim
same,"Assay (% label claim), Room Condition",[1]; time 3 hr,97.8 % label claim and 97.5 % label claim
same,"Assay (% label claim), 32° C., Room Light",[1]; time 4 hr,98.6 % label claim and 98.2 % label claim
same,"Assay (% label claim), Room Condition",[1]; time 5 hr,97.0 % label claim and 97.3 % label claim
same,"Assay (% label claim), Room Condition",[1]; time 8 hr,99.5 % label claim
same,"Assay (% label claim), 32° C., Room Light",[1]; time 12 hr,98.9 % label claim and 97.0 % label claim
same,"Assay (% label claim), Room Condition",[1]; time 12 hr,97.3 % label claim and 97.8 % label claim
same,"Assay (% label claim), 32° C., Room Light",[1]; time 24 hr,96.6 % label claim and 97.8 % label claim
same,"Assay (% label claim), Room Condition",[1]; time 24 hr,98.1 % label claim and 97.4 % label claim
same,stability of tretinoin in the mixture,[2],stable
